Key:
Cannabinoid receptor 1 = Cannabinoid receptor 1 (Homo sapiens, UniProt P21554); experiment: (§1) cAMP Assay: CHO cells expressing human CB1 or CB2 receptors are seeded 17-24 hours prior to the experiment 50.000 cells per well in a black 96 well plate with flat clear bottom (Corning Costar #3904) in DMEM (Invitrogen No. 31331), 1xHT supplement, with 10% fetal calf serum and incubated at 5% CO2 and 37° C. in a humidified incubator. The growth medium was exchanged with Krebs Ringer Bicarbonate buffer with 1 mM IBMX and incubated at 30° C. for 30 min. Compounds were added to a final assay volume of 100 ul and incubated for 30 min at 30° C. Using the cAMP-Nano-TRF detection kit the assay (Roche Diagnostics) was stopped by the addition of 50 ul lysis reagent (Tris, NaCl, 1.5% Triton X100, 2.5% NP40, 10% NaN3) and 50 ul detection solutions (20 uM mAb Alexa700-cAMP 1:1, and 48 uM Ruthenium-2-AHA-cAMP) and shaken for 2 h at room temperature. The time-resolved energy transfer is measured by a TRF reader (Evotec Technologies GmbH), equipped with a ND:YAG laser as excitation source. The plate is measured twice with the excitation at 355 nm and at the emission with a delay of 100 ns and a gate of 100 ns, total exposure time 10 s at 730 (bandwidth 30 nm) or 645 nm (bandwidth 75 nm), respectively. The FRET signal is calculated as follows: FRET=T730-Alexa730-P (T645-B645) with P=Ru730-B730/Ru645-B645, where T730 is the test well measured at […], T645 is the test well measured at 645 nm, B730 and B645 are the buffer controls at 730 nm and 645 nm, respectively. cAMP content is determined from the function of a standard curve spanning from 10 uM to 0.13 nM cAMP. EC50 values were determined using Activity Base analysis (ID Business Solution, Limited). The EC50 values for a wide range of cannabinoid agonists generated from this assay were in agreement with the values published in the scientific literature.
Cannabinoid receptor 2 = Cannabinoid receptor 2 (Homo sapiens, UniProt P34972); experiment: as §1
Chain of Cannabinoid receptor 2 (P34972 whole entry): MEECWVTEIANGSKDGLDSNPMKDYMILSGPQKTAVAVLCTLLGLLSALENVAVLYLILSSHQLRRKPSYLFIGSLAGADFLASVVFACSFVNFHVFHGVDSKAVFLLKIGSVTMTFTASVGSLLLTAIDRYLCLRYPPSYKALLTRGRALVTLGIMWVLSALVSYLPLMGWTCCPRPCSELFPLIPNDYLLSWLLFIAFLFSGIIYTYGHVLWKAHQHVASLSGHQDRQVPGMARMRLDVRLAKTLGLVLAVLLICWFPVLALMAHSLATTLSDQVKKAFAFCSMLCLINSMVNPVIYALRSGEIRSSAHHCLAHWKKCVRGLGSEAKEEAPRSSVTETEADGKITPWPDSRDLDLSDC

Chain of Cannabinoid receptor 1 (P21554 whole entry): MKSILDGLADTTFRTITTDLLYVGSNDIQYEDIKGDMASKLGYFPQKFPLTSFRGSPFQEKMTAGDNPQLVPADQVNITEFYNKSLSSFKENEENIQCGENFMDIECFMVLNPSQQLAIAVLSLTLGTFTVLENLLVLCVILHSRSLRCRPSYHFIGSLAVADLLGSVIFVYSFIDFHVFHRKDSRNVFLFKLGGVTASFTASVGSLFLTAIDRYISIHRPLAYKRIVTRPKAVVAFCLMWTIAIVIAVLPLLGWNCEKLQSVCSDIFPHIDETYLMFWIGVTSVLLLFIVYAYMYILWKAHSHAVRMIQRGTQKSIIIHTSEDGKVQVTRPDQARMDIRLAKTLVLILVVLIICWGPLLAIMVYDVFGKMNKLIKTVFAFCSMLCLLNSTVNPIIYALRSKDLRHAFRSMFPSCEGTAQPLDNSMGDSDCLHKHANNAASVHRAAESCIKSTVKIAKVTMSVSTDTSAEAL

Structure (SMILES): CC1(C)CCCN1C(=O)c1cnc(C2CC2)c(OCC2CC2)n1
- EC50 (Cannabinoid receptor 1): > 10000 nM
- EC50 (Cannabinoid receptor 2): 11.2 nM

Structure (SMILES): CCN(C(=O)c1cnc(N2CC(F)(F)C2)c(OCC2CC2)n1)C(C)C
- EC50 (Cannabinoid receptor 1): > 10000 nM
- EC50 (Cannabinoid receptor 2): 19.9 nM

Structure (SMILES): NC(=O)[C@@H]1CC(F)(F)CN1C(=O)c1cnc(C2CC2)c(OCC2CC2)n1
- EC50 (Cannabinoid receptor 1): > 10000 nM
- EC50 (Cannabinoid receptor 2): 23.5 nM

From ChEMBL document CHEMBL5725277, “Pyrazine derivatives as CB2 receptor agonists” (2016)
